In patent US11766443B2, “Cyclopentathiophene carboxamide derivatives as platelet activating factor receptor antagonists” (Boehringer Ingelheim International GmbH, priority 2021, dated 2023):
In brackets after ≈: the same amount, converted by molar mass.

Columns and labels:
[1] = aqueous solubility in buffer (from DMSO stock, 24 h shaking, LC-UV); settings: pH 2.2, aqueous buffer, kinetic from dmso stock
Experimental: The aqueous solubility of the test compound is determined by comparing the amount dissolved in buffer to the amount in an ACN/water (1/1) solution. Starting from a 10 mM DMSO stock solution aliquots are diluted with ACN/water (1/1) or buffer, respectively. After 24 h of shaking, the solutions are filtrated and analyzed by LC-UV. The amount dissolved in buffer is compared to the amount in the ACN solution.
Solubility will usually be measured from 0.001 to 0.125 mg/mL at a DMSO concentration of 2.5%. If more than 90% of the compound is dissolved in buffer, the value is marked with “>”.

[2] = biological target: T1, human PAFR (Homo sapiens, UniProt P25105); assay: cellular HTRF IP1 endpoint assay: inhibition of PAFR activation by PAF C-16 ligand; assay type: cell-based; settings: HEK293 cells overexpressing human PAFR; PAF ligand 11 nM
T1 construct: expressed in transfected cells; host or cells: HEK293
T1 sequence (P25105 whole entry): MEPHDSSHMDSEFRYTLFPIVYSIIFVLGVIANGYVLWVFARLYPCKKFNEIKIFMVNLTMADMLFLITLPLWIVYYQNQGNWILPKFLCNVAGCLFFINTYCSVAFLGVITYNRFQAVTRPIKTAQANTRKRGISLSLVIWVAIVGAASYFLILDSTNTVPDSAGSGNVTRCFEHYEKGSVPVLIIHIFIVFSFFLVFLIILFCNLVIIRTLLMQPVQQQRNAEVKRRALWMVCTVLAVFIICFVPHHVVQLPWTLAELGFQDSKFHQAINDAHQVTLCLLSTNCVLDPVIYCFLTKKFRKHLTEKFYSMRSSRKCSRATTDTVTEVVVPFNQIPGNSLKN
Experimental: The ability of compounds of formula (I.0) to inhibit the activation of the PAF receptor (PAFR) by the PAF C-16 ligand (PAF) is determined using the following cellular HTRF IP1 assay (IP1 Gq assay kit from Cisbio, Cat. no.: 62IP1APEJ) in assay buffer (1×HBSS, 20 mM Hepes, pH 7.4, 50 mM LiCl and containing 0.1% (w/v) BSA):
HEK293 cells overexpressing human PAFR (produced in-house) are seeded into a Poly-D-Lysine coated 384 well white cell culture microtiter assay plate with lid (15.000 cells per well). Subsequently, the plates are incubated over night at 37° C./5% CO2. On the next day, cells are being washed and subsequently, various concentrations of the test compounds (compounds in 100% DMSO; final concentration of DMSO in wells is 1%) are added to the assay plate via Echo 555 acoustic liquid handler. Plates are then incubated with lid for 90 minutes at 37° C./5% CO2. Thereafter, PAF ligand (Cayman Chemical Company, Item no.: 60900) is added at a final concentration of 11 nM. Plates are then incubated with lid for 60 minutes at 37° C./5% CO2. Then, 5 μl per well of Anti-IP1-Anti body-Cryptate solution and 5 μL per well of IP1-d2 solution are added to all wells of the plate and the plate is incubated for another 60 minutes light protected at room temperature. The emissions at 620 nm and 665 nm (Excitation wavelength: 320 nm) are measured using an Envision Reader (PerkinElmer).

Compound | solubility at 24 h [1] [µg/mL] | IC50 [2] [nM]
Cc1nnc2n1-c1sc3c(c1[C@H](c1ccccc1Cl)NC2)C[C@H](C(=O)NCc1ccc(OC(F)F)nc1)C3 [Example 12] | > 129 | 1.9
Cc1nnc2n1-c1sc3c(c1[C@@H](c1ccccc1Cl)NC2)C[C@H](C(=O)NCc1ccc(C(F)(F)F)cc1)C3 [Example 13] | 88 (≈ 158 µM) | 281
Cc1nnc2n1-c1sc3c(c1[C@H](c1ccccc1Cl)NC2)C[C@H](C(=O)NCc1ccc(C(F)(F)F)cc1)C3 [Example 14] | 109 (≈ 195 µM) | 0.4
Cc1nnc2n1-c1sc3c(c1[C@H](c1ccccc1Cl)NC2)C[C@H](C(=O)NCC1CC1)C3 [Example 15] | > 113 | 1.7
Cc1nnc2n1-c1sc3c(c1[C@H](c1ccccc1Cl)NC2)C[C@H](C(=O)N[C@@H]1CCC(F)(F)C1)C3 [Example 16] | > 118 | 1.4
Cc1nnc2n1-c1sc3c(c1[C@H](c1ccccc1Cl)NC2)C[C@H](C(=O)N1CCC(F)(F)CC1)C3 [Example 18] | > 112 | 3.1
Cc1nnc2n1-c1sc3c(c1[C@H](c1ccccc1Cl)NC2)C[C@H](C(=O)N[C@@H](C)CF)C3 [Example 20] | > 128 | 4.5
Cc1nnc2n1-c1sc3c(c1[C@H](c1ccccc1Cl)NC2)C[C@H](C(=O)N1CC2(CCCO2)C1)C3 [Example 22] | > 112 | 5.3
Cc1nnc2n1-c1sc3c(c1[C@H](c1ccccc1Cl)NC2)C[C@H](C(=O)NC1CCC(F)(F)CC1)C3 [Example 23] | > 114 | 1.3
Cc1nnc2n1-c1sc3c(c1[C@H](c1ccccc1Cl)NC2)C[C@H](C(=O)N1CC(C)(C)C1)C3 [Example 24] | > 105 | 2
Cc1noc(C)c1NC(=O)[C@@H]1Cc2sc3c(c2C1)[C@H](c1ccccc1Cl)NCc1nnc(C)n1-3 [Example 25] | > 136 | 4.3
Cc1nnc2n1-c1sc3c(c1[C@H](c1ccccc1Cl)NC2)C[C@H](C(=O)N1C[C@@H](C)O[C@@H](C)C1)C3 [Example 27] | > 133 | 5.5
Cc1ncc2n1CCN(C(=O)[C@@H]1Cc3sc4c(c3C1)[C@H](c1ccccc1Cl)NCc1nnc(C)n1-4)C2 [Example 29] | > 110 | 69
Cc1nnc2n1-c1sc3c(c1[C@H](c1ccccc1Cl)NC2)C[C@H](C(=O)N1CC2(CCOCC2)C1)C3 [Example 30] | 80 (≈ 157 µM) | 12
Cc1nnc2n1-c1sc3c(c1[C@H](c1ccccc1Cl)NC2)C[C@H](C(=O)NCc1ccccc1)C3 [Example 31] | > 132 | 1.1
Cc1nnc2n1-c1sc3c(c1[C@H](c1ccccc1Cl)NC2)C[C@H](C(=O)N1CCC1)C3 [Example 32] | > 139 | 34
Cc1nnc2n1-c1sc3c(c1[C@H](c1ccccc1Cl)NC2)C[C@H](C(=O)NC(C)(C)CO)C3 [Example 33] | > 139 | 2.8
Cc1nnc2n1-c1sc3c(c1[C@H](c1ccccc1Cl)NC2)C[C@H](C(=O)N(C)Cc1ccccc1)C3 [Example 34] | > 126 | 2.1
Cc1nnc2n1-c1sc3c(c1[C@H](c1ccccc1Cl)NC2)C[C@H](C(=O)NCc1cccc(C(F)(F)F)n1)C3 [Example 35] | 106 (≈ 190 µM) | 3.8
Cc1nnc2n1-c1sc3c(c1[C@H](c1ccccc1Cl)NC2)C[C@H](C(=O)NCc1ncccc1C(F)(F)F)C3 [Example 36] | 95 (≈ 170 µM) | 3

Compound | solubility at 24 h [1] [µg/mL] | IC50 [2] [nM]
Cc1nnc2n1-c1sc3c(c1[C@H](c1ccccc1Cl)NC2)C[C@H](C(=O)NCc1cc(C(F)(F)F)ccn1)C3 [Example 37] | 100 (≈ 179 µM) | 2.9
Cc1nnc2n1-c1sc3c(c1[C@H](c1ccccc1Cl)NC2)C[C@H](C(=O)NCc1ccc(C(F)(F)F)cn1)C3 [Example 38] | 108 (≈ 193 µM) | 1.4
Cc1nnc2n1-c1sc3c(c1[C@H](c1ccccc1Cl)NC2)C[C@H](C(=O)NCc1cscn1)C3 [Example 39] | > 110 | 60
Cc1nnc2n1-c1sc3c(c1[C@H](c1ccccc1Cl)NC2)C[C@H](C(=O)NCc1nccs1)C3 [Example 40] | > 111 | 83
COc1ccc(CNC(=O)[C@@H]2Cc3sc4c(c3C2)[C@H](c2ccccc2Cl)NCc2nnc(C)n2-4)cn1 [Example 41] | > 119 | 11
Cc1nnc2n1-c1sc3c(c1[C@H](c1ccccc1Cl)NC2)C[C@H](C(=O)NCc1cncnc1)C3 [Example 42] | > 121 | 138
Cc1nnc2n1-c1sc3c(c1[C@H](c1ccccc1Cl)NC2)C[C@H](C(=O)NCc1cncc(C(F)(F)F)c1)C3 [Example 43] | 104 (≈ 186 µM) | 2.6
Cc1nnc2n1-c1sc3c(c1[C@H](c1ccccc1Cl)NC2)C[C@H](C(=O)NCc1ccnnc1)C3 [Example 44] | > 112 | 41
Cc1nnc2n1-c1sc3c(c1[C@H](c1ccccc1Cl)NC2)C[C@H](C(=O)NCc1ccnc(C(F)(F)F)c1)C3 [Example 45] | > 140 | 1.9
Cc1nnc2n1-c1sc3c(c1[C@H](c1ccccc1Cl)NC2)C[C@H](C(=O)NCc1cnc(C(F)(F)F)nc1)C3 [Example 46] | 112 (≈ 200 µM) | 6.3
Cc1ncc(CNC(=O)[C@@H]2Cc3sc4c(c3C2)[C@H](c2ccccc2Cl)NCc2nnc(C)n2-4)s1 [Example 47] | > 115 | 12
Cc1ncsc1CNC(=O)[C@@H]1Cc2sc3c(c2C1)[C@H](c1ccccc1Cl)NCc1nnc(C)n1-3 [Example 48] | > 128 | 15
Cc1nnc2n1-c1sc3c(c1[C@H](c1ccccc1Cl)NC2)C[C@H](C(=O)NCc1ccc(Cl)cn1)C3 [Example 49] | 101 (≈ 192 µM) | 1.9
CCC12CC(NC(=O)[C@@H]3Cc4sc5c(c4C3)[C@H](c3ccccc3Cl)NCc3nnc(C)n3-5)(C1)C2 [Example 50] | 98 (≈ 198 µM) | 0.5
Cc1nnc2n1-c1sc3c(c1[C@H](c1ccccc1Cl)NC2)C[C@H](C(=O)NC12CC(C1)C2)C3 [Example 51] | > 116 | 2.2
COc1ccc(Cl)c(C2NCc3nnc(C)n3-c3sc4c(c32)CC(C(=O)N2CCOCC2)C4)c1 (centres unmarked) [Example 62, 9-(2-Chloro-5-methoxyphenyl)-3-methyl-13-(morpholine-4-carbonyl)-16-thia-2,4,5,8-tetraazatetracyclo-[8.6.0.0^2,6.0^11,15]hexadeca-1(10),3,5,11(15)-tetraene] | > 118 | 94
Cc1ccccc1[C@@H]1NCc2nnc(C)n2-c2sc3c(c21)C[C@H](C(=O)N1CCOCC1)C3 [Example 64, (9S,13S)-3-methyl-9-(2-methylphenyl)-13-(morpholine-4-carbonyl)-16-thia-2,4,5,8-tetraazatetracyclo[8.6.0.0^2,6.0^11,15]-hexadeca-1(10),3,5,11(15)-tetraene] | > 108 | 210
Cc1nnc2n1-c1sc3c(c1C(c1ccccc1Cl)NC2)C[C@H](C(=O)NC(C)(C)CO)C3 (stereo partly drawn) [Example 65, (13S)-9-(2-Chlorophenyl)-N-(1-hydroxy-2-methylpropan-2-yl)-3-methyl-16-thia-2,4,5,8-tetraazatetracyclo-[8.6.0.0^2,6.0^11,15]hexadeca-1(10),3,5,11(15)-tetraene-13-carboxamide] | > 147 | 11
CCc1nnc2n1-c1sc3c(c1C(c1ccccc1Cl)NC2)CC(C(=O)N1CCOCC1)C3 (centres unmarked) [Example 67] | > 121 | 73
CCc1nnc2n1-c1sc3c(c1[C@@H](c1ccccc1Cl)NC2)C[C@H](C(=O)N1CCOCC1)C3 [Example 68] | > 116 | > 999
